Reference: US20250179061A1 (SIRONAX LTD., priority 2022, published 2025)

test system: HT-29 cells; test: HT-29 necroptosis cell viability assay (TNF-α/SMAC mimetic/zVAD-FMK, CellTiter-Glo); type: cell-based; details: Homo sapiens; HT-29 cells stimulated with TNF-α (10 ng/ml), SMAC mimetic (6 μM) and zVAD-FMK (10 μM); 20 hours; CellTiter-Glo ATP luminescence; geometric mean IC50 from 10 points; read-out: Activity
Protocol: Compounds 1-702 of the disclosure were tested for biological activity, following the experimental procedures described below.
• Cell line: HT-29 (ATCC® HTB-38™) • Culture medium: McCOY's 5A, Gibco, Cat No. 16600-082 • FBS, Gibco, Cat No. 10099-141 C • Trypsin: Gibco, Cat No. 25200-056 • DMSO: Sigma, Cat No. 67-68-5, 1L • Assay plate: Corning #3903 • Compound dilution plate: Corning #3357 • Inducers: TNFα, GenScript, Cat No. Z01001-50, • SmacM, Cat. No., HY-15989, MedChemExpress (MCE) • Z_VAD FMK, TargetMol, T6013 • Cell Titer-Glo® Luminescent Cell Viability Assay Kit: Promega, Cat No. G7573 • EnVision: PerkinElmer, 2105-0010
• 1. HT-29 cells were checked every day to make sure that they were healthy and growing as expected. They were subjected to sub-culturing when they were approximately 80% confluent. • 2. The culture medium, McCOY's 5A medium (Gibco, Cat No. 16600-082) with 10% fetal bovine serum or FBS (Gibco, Cat No. 10099-141C), was pre-warmed in a 37° C. water bath for at least 30 min. • 3. When the cells had reached a desired level of confluency of 80% in a T75 flask, the medium was aspirated, and the cells were washed with warm phosphate buffered saline or PBS two times. • 4. 2-3 ml fresh warm trypsin (Gibco, Cat No. 25200-056) solution was added to the washed cells. The flask with the cells was transferred to a 37° C. incubator. • 5. After 5 minutes, the side of the flask was tapped, and the flask was examined under a microscope for detachment of the cells to the flask. If necessary, the cells were kept in the incubator for an additional 5-10 minutes, with occasional tapping, until lifting was complete. • 6. The trypsin reaction was neutralized by transferring 6-9 ml cell culture medium to sterile 15 ml conical tubes, and by centrifuging the cell culture at 300×g for 7 minutes to pellet the cells (supernatant decanted). • 7. The cells were resuspended in fresh cell culture medium and the cell counting was performed using a hemocytometer. • 8. 100 μl of the resuspended cell culture medium containing ˜5,000 cells were transferred into each well of the sterile 96-well cell culture plate (Corning 3903) and cultured overnight at 37° C. with 5% CO2.
• 1. All test compounds were dissolved in DMSO (Dimethyl sulfoxide) to create a 20 mM stock. • 2. 3 μl of 20 mM stock of each compound was mixed with 27 μl DMSO, and the compound solution was further diluted at a titration ratio of 1:3 (20 μl compound solution+40 μl DMSO) till the 10 points end. • 3. All culture medium was removed from assay plates filled with HT-29 cell cultures. The cells were then washed with 1 PBS, and resuspsended in fresh, FBS-free McCOY's 5A medium containing a cocktail of TNF-α (10 ng/ml), a SMAC mimetic compound (6 μM) and Z-VAD-fluoromethylketone or zVAD-FMK (10 μM) to stimulate the HT-29 cells to increase RIP1 kinase levels and necroptosis. • 4. 0.5 μL of the diluted compound solution was added to the corresponding 96-well assay plates. • 5. The assay plates were incubated for 20 hours at 37° C. with 5% CO2.
• 1. The CellTiter-Glo® Luminescent Cell Viability Assay was employed to detect the ATP levels of viable HT-29 cells. • 2. The CellTiter-Glo® buffer and the lyophilized substrate were equilibrated to room temperature prior to use. • 3. The CellTiter-Glo® substrate was resuspended with CellTiter-Glo® buffer, then mixed by gently vortexing to obtain a homogeneous solution. • 4. 20 μl of the enzyme/substrate mixture was transferred by multi-channel pipetting into 96-well assay plates. • 5. The assay plates were placed on an orbital shaker and the contents were shaken for 3 minutes to induce cell lysis. • 6. The assay plates were incubated at room temperature for 10 minutes to stabilize the luminescent signal. • 7. The luminescence signals were read and recorded with EnVision. • 8. The geometric mean IC50 values were calculated from 10 points response dose with duplicates. […]

| SMILES | IC50 [nM] |
| --- | --- |
| Cn1nc(C(N)=O)cc1Oc1ccc(-n2nc3n(c2=O)C(c2ccccc2)CC3)cc1F (stereo not shown) [Example 29, 5-(2-fluoro-4-(3-oxo-5-phenyl-6,7-dihydro-3H-pyrrolo[2,1-c][1,2,4]triazol-2(5H)-yl)phenoxy)-1-methyl-1H-pyrazole-3-carboxamide] | < 100 |
| Cc1nc(C(N)=O)sc1Oc1ccc(-n2ncn(Cc3cnccc3Cl)c2=O)cc1F [Example 31, 5-(4-(4-((4-chloropyridin-3-yl)methyl)-5-oxo-4,5-dihydro-1H-1,2,4-triazol-1-yl)-2-fluorophenoxy)-4-methylthiazole-2-carboxamide] | < 100 |
| COC(=O)c1nc(C)c(Oc2ccc(-n3ncn(Cc4ncccc4F)c3=O)cc2F)s1 [Example 32] | 100 to 1000 |
| COC(=O)c1nc(C)c(Oc2ccc(-n3ncn(Cc4ncccc4C#N)c3=O)cc2F)s1 [Example 33, methyl 5-(4-(4-((3-cyanopyridin-2-yl)methyl)-5-oxo-4,5-dihydro-1H-1,2,4-triazol-1-yl)-2-fluorophenoxy)-4-methylthiazole-2-carboxylate] | 100 to 1000 |
| COC(=O)c1nc(C)c(Oc2ccc(-n3nc4n(c3=O)C(c3ccccc3)CC4)cc2F)s1 (stereo not shown) [Example 34, methyl 5-(2-fluoro-4-(3-oxo-5-phenyl-6,7-dihydro-3H-pyrrolo[2,1-c][1,2,4]triazol-2(5H)-yl)phenoxy)-4-methylthiazole-2-carboxylate] | 100 to 1000 |
| Cc1nc(C#N)sc1Oc1ccc(-n2ncn(Cc3ncccc3Cl)c2=O)cc1F [Example 37, 5-(4-(4-((3-chloropyridin-2-yl)methyl)-5-oxo-4,5-dihydro-1H-1,2,4-triazol-1-yl)-2-fluorophenoxy)-4-methylthiazole-2-carbonitrile] | < 100 |
| Cc1nc(C#N)sc1Oc1ccc(-n2ncn(Cc3cnccc3Cl)c2=O)cc1F [Example 38, 5-(4-(4-((4-chloropyridin-3-yl)methyl)-5-oxo-4,5-dihydro-1H-1,2,4-triazol-1-yl)-2-fluorophenoxy)-4-methylthiazole-2-carbonitrile] | < 100 |
| Cc1nc(C2CC(C#N)C2)sc1Oc1ccc(-n2ncn(Cc3c(F)cccc3F)c2=O)cc1 (stereo not shown) [Example 39, 3-(5-(4-(4-(2,6-difluorobenzyl)-5-oxo-4,5-dihydro-1H-1,2,4-triazol-1-yl)phenoxy)-4-methylthiazol-2-yl)cyclobutane-1-carbonitrile] | < 100 |
| Cc1nc(C2CC(C#N)C2)sc1Oc1ccc(-n2ncn(Cc3c(F)cccc3F)c2=O)cc1F (stereo not shown) [Example 40, 3-(5-(4-(4-(2,6-difluorobenzyl)-5-oxo-4,5-dihydro-1H-1,2,4-triazol-1-yl)-2-fluorophenoxy)-4-methylthiazol-2-yl)cyclobutane-1-carbonitrile] | < 100 |
| Cc1nc(C2CN(C(=O)OC(C)(C)C)C2)sc1Oc1ccc(-n2ncn(Cc3c(F)cccc3F)c2=O)cc1F [Example 41, tert-butyl 3-(5-(4-(4-(2,6-difluorobenzyl)-5-oxo-4,5-dihydro-1H-1,2,4-triazol-1-yl)-2-fluorophenoxy)-4-methylthiazol-2-yl)azetidine-1-carboxylate] | < 100 |
| Cc1nc(C2COC2)sc1Oc1ccc(-n2ncn(Cc3c(F)cccc3F)c2=O)cc1 [Example 42, 4-(2,6-difluorobenzyl)-2-(4-((4-methyl-2-(oxetan-3-yl)thiazol-5-yl)oxy)phenyl)-2,4-dihydro-3H-1,2,4-triazol-3-one] | < 100 |
| Cc1nc(N2C[C@@H](C#N)[C@@H]2C)sc1Oc1ccc(-n2ncn(Cc3c(F)cccc3F)c2=O)cc1 [Example 43, (2S,3R)-1-(5-(4-(4-(2,6-difluorobenzyl)-5-oxo-4,5-dihydro-1H-1,2,4-triazol-1-yl)phenoxy)-4-methylthiazol-2-yl)-2-methylazetidine-3-carbonitrile] | < 100 |
| Cc1nc(N2C[C@H](C#N)[C@@H]2C)sc1Oc1ccc(-n2ncn(Cc3c(F)cccc3F)c2=O)cc1 [Example 44, (2S,3S)-1-(5-(4-(4-(2,6-difluorobenzyl)-5-oxo-4,5-dihydro-1H-1,2,4-triazol-1-yl)phenoxy)-4-methylthiazol-2-yl)-2-methylazetidine-3-carbonitrile] | < 100 |
| Cc1nc(NC23CC(C#N)(C2)C3)sc1Oc1ccc(-n2ncn(Cc3c(F)cccc3F)c2=O)cc1 [Example 45, 3-((5-(4-(4-(2,6-difluorobenzyl)-5-oxo-4,5-dihydro-1H-1,2,4-triazol-1-yl)phenoxy)-4-methylthiazol-2-yl)amino)bicyclo[1.1.1]pentane-1-carbonitrile] | < 100 |
| Cc1nc(N2CC(C)(C#N)C2)sc1Oc1ccc(-n2ncn(Cc3c(F)cccc3F)c2=O)cc1 [Example 46, 1-(5-(4-(4-(2,6-difluorobenzyl)-5-oxo-4,5-dihydro-1H-1,2,4-triazol-1-yl)phenoxy)-4-methylthiazol-2-yl)-3-methylazetidine-3-carbonitrile] | < 100 |
| Cc1nc(N2CC(OC3CC3)C2)sc1Oc1ccc(-n2ncn(Cc3c(F)cccc3F)c2=O)cc1 [Example 47, 2-(4-((2-(3-cyclopropoxyazetidin-1-yl)-4-methylthiazol-5-yl)oxy)phenyl)-4-(2,6-difluorobenzyl)-2,4-dihydro-3H-1,2,4-triazol-3-one] | < 100 |
| Cc1nc(N2CC(C#N)C2C)sc1Oc1ccc(-n2ncn(Cc3c(F)cccc3F)c2=O)cc1 (stereo not shown) [Example 48, 1-(5-(4-(4-(2,6-difluorobenzyl)-5-oxo-4,5-dihydro-1H-1,2,4-triazol-1-yl)phenoxy)-4-methylthiazol-2-yl)-2-methylazetidine-3-carbonitrile] | < 100 |
| Cc1nc(N2CC(OC(F)F)C2)sc1Oc1ccc(-n2ncn(Cc3c(F)cccc3F)c2=O)cc1 [Example 49, 4-(2,6-difluorobenzyl)-2-(4-((2-(3-(difluoromethoxy)azetidin-1-yl)-4-methylthiazol-5-yl)oxy)phenyl)-2,4-dihydro-3H-1,2,4-triazol-3-one] | < 100 |
| Cc1nc(N2C[C@@H](O)[C@@H]2C)sc1Oc1ccc(-n2ncn(Cc3c(F)cccc3F)c2=O)cc1 [Example 50, 4-(2,6-difluorobenzyl)-2-(4-((2-((2S,3R)-3-hydroxy-2-methylazetidin-1-yl)-4-methylthiazol-5-yl)oxy)phenyl)-2,4-dihydro-3H-1,2,4-triazol-3-one] | < 100 |
| Cc1nc(N2C[C@H](F)[C@@H]2C)sc1Oc1ccc(-n2ncn(Cc3c(F)cccc3F)c2=O)cc1 [Example 51, 4-(2,6-difluorobenzyl)-2-(4-((2-((2S,3S)-3-fluoro-2-methylazetidin-1-yl)-4-methylthiazol-5-yl)oxy)phenyl)-2,4-dihydro-3H-1,2,4-triazol-3-one] | < 100 |
| Cc1nc(N2CC([C@H](C)O)C2)sc1Oc1ccc(-n2ncn(Cc3c(F)cccc3F)c2=O)cc1 [Example 52, (S)-4-(2,6-difluorobenzyl)-2-(4-((2-(3-(1-hydroxyethyl)azetidin-1-yl)-4-methylthiazol-5-yl)oxy)phenyl)-2,4-dihydro-3H-1,2,4-triazol-3-one] | < 100 |
| Cc1nc(N2CC(C#N)C2)sc1Oc1ccc(-n2ncn(Cc3c(F)cccc3F)c2=O)cc1 [Example 53, 1-(5-(4-(4-(2,6-difluorobenzyl)-5-oxo-4,5-dihydro-1H-1,2,4-triazol-1-yl)phenoxy)-4-methylthiazol-2-yl)azetidine-3-carbonitrile] | < 100 |
